Here are results for 8 molecules from patent US20120178124A1, “STEROL SIDE CHAIN-CLEAVING ENZYME PROTEIN AND USE THEREOF” (MITSUBISHI CHEMICAL CORPORATION, priority 2009, published 2012).

Where two headings read alike, the source gives them in different places.

One series has as its system CYPSS204A. Briefly: Conversion reaction of substrates by Escherichia coli expression strain BP215. The format is cell-based, Sphingomonas subterranea NBRC 16086. As to the method: The temperature conditions applied during the PCR were 95° C./5 min, 30 cycles of (98° C./30 sec, 60° C./30 sec, and 68° C./2 min), and 68° C./10 min.
Analysis conditions: Using Chromolith speed rod RP18e (50×4.6 mm) column, 50%→100% CH3CN gradient (0 to 3 min) and 100% CH3CN (3 to 8 min) were used as a mobile phase, and detection was carried out at a flow rate of 2 ml/min using CAD™ (Charged Aerosol Detection) and MS.

The next series relates to CYP204A1. Conditions: for Conversion rate: strain BP172, same reaction as Example 6 (28° C., 5 hours); for accumulated amount of pregnenolone / added substrate remained: strain BP172, same reaction as Example 6. How it is done: Novosphingobium aromaticivorans (ATCC 700278) was inoculated into an L medium, and it was then cultured at 30° C. for 2 days. Thereafter, genomic DNA was extracted from the cell mass obtained in the same manner as that of Example 1. A fragment comprising a CYPSS204A1 gene and a ferredoxin gene located downstream thereof was amplified from the above-described genomic DNA by using a primer CYP-5F (SEQ ID NO: 9) and a primer CYP-6R (SEQ ID NO: 10) and also using La Taq polymerase (manufactured by Takara Bio INC.). The temperature conditions applied during this operation were 94° C./3 min, 30 cycles of (98° C./20 sec, 63° C./30 sec, and 68° C./2 min), and 72° C./5 min.
Escherichia coli BL21(DE3) was transformed with this plasmid, and the obtained cell strain was named as BP172.
(§1) The Escherichia coli expression strain BP215 was inoculated into 2 ml of an M9 mix medium (Na2HPO4: 0.68%, KH2PO4: 0.3%, NaCl: 0.05%, NH4C;: 0.01%, Casamino acid: 1%, D-Glucose: 0.4%, CaCl2: 0.1 mM, MgCl2: 1 mM, Thiamine: 0.002%, FeSO4: 0.1 mM, Carbenicillin: 0.005%), and it was then subjected to shaking culture at 30° C. for 17 hours, so as to obtain pre-culture solution. 0.25 ml of this pre-culture solution was inoculated into 25 ml of the main culture medium (Na2HPO4: 0.68%, KH2PO4: 0.3%, NaCl: 0.05%, NH4Cl: 0.01%, Casamino acid: 1%, CaCl2: 0.1 mM, MgCl2: 1 mM, Thiamine: 0.002%, FeSO4: 0.1 mM, Carbenicillin: 0.005%, Overnight Express™ solution: 7%, 5-Aminolevlic acid: 0.008%) using Overnight Express™ Autoinduction System (Novagen Cat. No. 71300-4), and it was then subjected to shaking culture at 25° C. for 24 hours. 5 ml of the obtained main culture solution was centrifuged (3500 rpm, 10 minutes) to obtain cell mass, and 1 ml of CV2 buffer (50 mM (pH) potassium phosphate buffer containing glycerol: 2%, carbenicillin: 0.005%, and isopropyl β-D-1-thiogalactopyranoside: 0.1 mM) was added to the obtained cell mass. Thereafter, 0.01 ml of the methanol solution of 1% 4-cholesten-3-one and 0.02 ml of an aqueous solution of 25% methyl-β-cyclodextrin were added to the mixed solution, and the obtained mixture was then shaken at 28° C. for 5 hours for the reaction. After completion of the reaction, 4 ml of methanol was added to the reaction solution, and they were then fully mixed. The obtained mixture was centrifuged, and the upper layer was then analyzed by HPLC.
As substrates, 4-cholesten-3-one, cholesterol, 7-dehydrocholesterol, ergosterol, 13-sitosterol, stigmasterol, campesterol, desmosterol, (20S)-20-hydroxycholest-4-en-3-one, (22R)-22-hydroxycholest-4-en-3-one, (20R,22R)-20,22-dihydroxycholest-4-en-3-one, and (20R,22S)-20,22-dihydroxycholest-4-en-3-one were used. Each substrate was subjected to the same reaction as that of Example 6, separately, and the generated product was then analyzed by HPLC.

The target of another series is T1, CYP11A (Homo sapiens, UniProt P05108).
T1 construct: A 1.45-kb CYP11A1 gene fragment amplified as a result of the above-described reaction; expressed in transfected cells; host or cells: Escherichia coli BL21(DE3), plasmid pCYP11A-ARX (strain BL21CYP11)
T1 sequence (P05108 40-521): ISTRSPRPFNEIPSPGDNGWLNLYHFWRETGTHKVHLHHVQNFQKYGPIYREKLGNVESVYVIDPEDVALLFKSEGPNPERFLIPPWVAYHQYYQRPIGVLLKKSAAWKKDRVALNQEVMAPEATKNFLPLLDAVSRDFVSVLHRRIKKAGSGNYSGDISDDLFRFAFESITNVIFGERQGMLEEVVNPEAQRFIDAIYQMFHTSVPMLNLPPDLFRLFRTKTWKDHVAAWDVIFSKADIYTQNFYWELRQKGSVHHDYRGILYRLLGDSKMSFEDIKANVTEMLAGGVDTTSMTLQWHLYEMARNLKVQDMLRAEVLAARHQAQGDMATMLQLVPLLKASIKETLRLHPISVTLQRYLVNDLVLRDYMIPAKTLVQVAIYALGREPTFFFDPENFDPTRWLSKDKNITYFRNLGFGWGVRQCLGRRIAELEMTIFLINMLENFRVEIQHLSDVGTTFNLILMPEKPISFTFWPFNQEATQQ
Description: Conversion reaction of substrates by CYP11A-expressing Escherichia coli. Conditions: for added substrate remained / accumulated amount of pregnenolone: same reaction as Example 6; for Conversion rate: same reaction as Example 6 (28° C., 5 hours). Format: cell-based. As to the method:
as §1
A commercially available human testis cDNA (Origene Technologies, Inc.) was used as a template, and a CYP11A1 gene was amplified by PCR using a primer CYP11A-1F (SEQ ID NO: 19) and a primer CYP11A-2R (SEQ ID NO: 20), and also using KOD plus polymerase (TOYOBO Co., Ltd.). The temperature conditions applied during the PCR were 94° C./3 min, 30 cycles of (94° C./30 sec, 55° C./60 sec, and 72° C./90sec), and 72° C./5 min.
A 1.45-kb CYP11A1 gene fragment amplified as a result of the above-described reaction was purified using QIAquick PCR purification Kit (manufactured by QIAGEN), and it was then digested with Nde I and Spe I. Thereafter, the digest was ligated to Escherichia coli expression vector pT7NS-camAB, using T4 DNA ligase, and Escherichia coli DH5α was then transformed with the obtained expression vector, so as to construct a plasmid pCYP11A-camAB. Subsequently, using T4 DNA ligase, the previously prepared bovine-derived adrenodoxin reductase protein-adrenodoxin gene (adr-adx) fragment was inserted into and ligated to each of the Spe I and Bam HI sites of the above-described plasmid, and Escherichia coli DH5a was then transformed with the obtained plasmid, so as to construct plasmid pCYP11A-ARX. Thereafter, Escherichia coli BL21(DE3) was transformed with the thus constructed plasmid, and the obtained cell strain was named as BL21CYP11. The used adx-adr fragment was amplified by PCR with a plasmid pKARX (Sawada et. al. Eur. J. Biochem. 265, 950-956,1999) as a template, using primer bAdxR-1F (SEQ ID NO: 21) and primer bAdx-2R (SEQ ID NO: 22), and also using KOD plus polymerase (manufactured by TOYOBO Co., Ltd.). The temperature condition applied during the PCR were 94° C./3 min, 25 cycles of (94° C./30 sec, 60° C./30 sec, and 72° C./120sec), and 72° C./5 min.
Each substrate was subjected to the same reaction as that of Example 6, separately, and the reaction solution was then subjected to liquid separation using 1 ml of ethyl acetate. The reaction product and the substrate were extracted, and were then analyzed by HPLC.

Setting [1] is: strain BP215, 28° C., 5 hours, to progesterone, pregnenolone or 7-dehydropregnenolone.

Regarding `CC[C@H](/C=C/[C@@H](C)[C@H]1CC[C@H]2[C@@H]3CC=C4C[C@@H](O)CC[C@]4(C)[C@H]3CC[C@]12C)C(C)C` [stigmasterol], the “accumulated amount of side-chain cleavage product” value in the series on CYPSS204A (strain BP215, 28° C., 5 hours) was found to be 5.8 mg/L. Moreover, the added substrate remained with CYPSS204A (strain BP215, 28° C., 5 hours) is reported as 70.8%; at CYP11A it was 100%. The Conversion rate in the series with CYPSS204A (setting [1]) came to 5.8%; in the series on CYP204A1, 6.5%; on CYP11A, 0%.

As to `CC(C)[C@H](C)CC[C@@H](C)[C@H]1CC[C@H]2[C@@H]3CC=C4C[C@@H](O)CC[C@]4(C)[C@H]3CC[C@]12C` [campesterol], in the series with CYPSS204A (strain BP215, 28° C., 5 hours), the “accumulated amount of side-chain cleavage product” value amounted to 27.9 mg/L. The added substrate remained was determined as 25.5% with CYPSS204A (strain BP215, 28° C., 5 hours) and 99.1% on CYP11A. The Conversion rate with CYPSS204A (setting [1]) stood at 27.9%; with CYP204A1 it was 31.3%; at CYP11A, 1.0%; at CYP11A (listed as Cam), 1%.

As to `CC(C)CC[C@H](O)[C@@H](C)[C@H]1CC[C@H]2[C@@H]3CC=C4C[C@@H](O)CC[C@]4(C)[C@H]3CC[C@]12C` [(22S)-22-hydroxy-cholesterol], the “accumulated amount of pregnenolone” value was found to be 37.5 mg/L with CYPSS204A (strain BP215, 28° C., 5 hours); 12.9 mg/L with CYP204A1; 6.1 mg/L at CYP11A. For the same molecule, the added substrate remained in the series on CYPSS204A (strain BP215, 28° C., 5 hours) turned out to be 23.5%; with CYP204A1 it was 60.1%; on CYP11A, 92.6%. The values for the Conversion rate with CYPSS204A (setting [1]), in the series with CYP204A1 and at CYP11A were 37.5%, 12.9% and 6.1%, respectively.

Take `CC(C)CCC[C@@H](C)[C@H]1CC[C@H]2[C@@H]3CC=C4C[C@@H](O)CC[C@]4(C)[C@H]3CC[C@]12C` [cholesterol]: the “accumulated amount of side-chain cleavage product” value in the series on CYPSS204A (strain BP215, 28° C., 5 hours) came to 68.2 mg/L. The added substrate remained in the series on CYPSS204A (strain BP215, 28° C., 5 hours) stood at 3.7%; on CYP11A, 99%. Also, the Conversion rate in the series on CYPSS204A (setting [1]) was determined as 68.2%; in the series on CYP204A1, 71.2%; at CYP11A, 2.6%.

Turning to `CC(C)CC[C@@H](O)[C@@H](C)[C@H]1CC[C@H]2[C@@H]3CCC4=CC(=O)CC[C@]4(C)[C@H]3CC[C@]12C` [(22R)-22-hydroxycholest-4-en-3-one], the added substrate remained with CYPSS204A (strain BP215, 28° C., 5 hours) turned out to be 2.7%; on CYP11A, 99.7%. Further, the Conversion rate is given as 42.3% in the series with CYPSS204A (setting [1]), 80.9% in the series on CYP204A1 and 0.4% at CYP11A.

On to `CC(C)CC[C@H](O)[C@](C)(O)[C@H]1CC[C@H]2[C@@H]3CCC4=CC(=O)CC[C@]4(C)[C@H]3CC[C@]12C` [(20R,22S)-20,22-dihydroxycholest-4-en-3-one], for which the added substrate remained came out at 0.6% in the series on CYPSS204A (strain BP215, 28° C., 5 hours) and 100% on CYP11A. Besides, the values for the Conversion rate with CYPSS204A (setting [1]), in the series on CYP204A1 and on CYP11A were 69.8%, 41.7% and 0%, respectively.

Take `CC(C)CCC[C@](C)(O)[C@H]1CC[C@H]2[C@@H]3CC=C4C[C@@H](O)CC[C@]4(C)[C@H]3CC[C@@]21C` [(20S)-20-hydroxy-cholesterol]: the “accumulated amount of pregnenolone” value in the series on CYPSS204A (strain BP215, 28° C., 5 hours) came out at 89.2 mg/L; with CYP204A1, 68.2 mg/L; on CYP11A, 16.3 mg/L. For the same molecule, the added substrate remained with CYPSS204A (strain BP215, 28° C., 5 hours) was 0%; in the series on CYP204A1, 25.2%; at CYP11A, 98.8%. Also, the figures for the Conversion rate in the series with CYPSS204A (setting [1]), in the series on CYP204A1 and at CYP11A were 89.2%, 68.2% and 16.3%, respectively.

In the case of `CC(C)[C@@H](C)/C=C/[C@@H](C)[C@H]1CC[C@H]2C3=CC=C4C[C@@H](O)CC[C@]4(C)[C@H]3CC[C@]12C` [ergosterol], the figures for the Conversion rate in the series with CYPSS204A and at CYP11A were 2.8% and 0%, respectively. The “accumulated amount of side-chain cleavage product” value in the series with CYPSS204A (strain BP215, 28° C., 5 hours) is 2.8 mg/L. Moreover, the added substrate remained at CYP11A is 100%.
